Measured values reported in patent US20260223849A1, “FUNGICIDAL COMBINATION” (UPL MAURITIUS LIMITED, priority 2023, published 2026).

Test system: Zymoseptoria tritici (Septoria tritici)
Experiment: Efficacy against Zymoseptoria tritici (SEPTTR) on wheat, two applications (stages A and B)
Type: in vivo
Conditions: prothioconazole 520 mL/ha (130 g A/ha), fluxapyroxad 1424 mL/ha (89 g A/ha)
Experimental: The following formula was used to calculate the expected activity of mixtures containing active ingredients, A and B:
[formula] • where A=observed efficacy of active ingredient A at the same concentration as used in the mixture. • B=observed efficacy of active ingredient B at the same concentration as used in the mixture.
In the Colby method, the expected (or predicted) response of a combination of fungicides is calculated by taking the product of the observed response for each individual component of the combination when applied alone divided by 100 and subtracting this value from the sum of the observed response for each component when applied alone. An unexpected enhancement in efficacy of the combination is then determined by comparing the observed response of the combination to the expected (or predicted) response as calculated from the observed response of each individual component alone. If the observed response of the combination is greater than the expected (or predicted) response, or stated conversely, if the difference between the observed and expected response is greater than zero, then the combination is said to be synergistic or unexpectedly effective.
Efficacy of the combination of prothioconazole and fluxapyroxad was determined against Zymoseptoria tritici (Septoria tritici) in wheat crop. The actives prothioconazole and fluxapyroxad were tank mixed and applied as per the table below. Prothioconazole and fluxapyroxad were emulsifiable concentrate formulations with formulation concentrations of 250 g/L and 62.5 g/L, respectively. The applications were made twice at stages ‘A and ‘B’. Stage A was the time at which the first node was at least 1 cm above tillering node (Feekes 6.0=First node visible). Stage ‘B’ was the Flag leaf stage, wherein the flag leaf fully unrolled and ligule was visible (Feekes 9.0=Flag leaf). Applications were made at stage B which was 18 days after application A. The observations were made at 19 DA-A (19 days after application-A) as observed in table 1 (b) and at 23 DA-B (23 days after application B) as observed in Table 1 (c).

[1] = 19 DA-A (19 days after application A)
[2] = 23 DA-B (23 days after application B)

Row | SMILES | % Observed Control of Septoria tritici [1] [%] | % Observed Control of Septoria tritici [2] [%]
1 | Cn1cc(C(=O)Nc2ccccc2-c2cc(F)c(F)c(F)c2)c(C(F)F)n1 [Fluxapyroxad, 3-(difluoromethyl)-1-methyl-N-(3′,4′,5′-trifluorobiphenyl-2-yl) pyrazole-4-carboxamide] | 25.6 | 37.8
2 | OC(Cc1ccccc1Cl)(Cn1[nH]cnc1=S)C1(Cl)CC1 (stereo not shown) [Prothioconazole, 2-[2-(1-chlorocyclopropyl)-3-(2-chlorophenyl)-2-hydroxypropyl]-1,2-dihydro-3H-1,2,4-triazole-3-thione] | 23.7 | 20.0
